From patent US11802120B2, “Fused cyclic urea derivatives as CRHR2 antagonist” (RaQualia Pharma Inc., priority 2018, dated 2023)

biological target: T1, human CRHR2-alpha (Homo sapiens, UniProt Q13324); test: cAMP functional assay for human CRHR2 (LANCE Ultra cAMP, TR-FRET); format: cell-based; conditions: CHO-K1 cells expressing human CRHR2-alpha, agonist human urocortin2 at EC80, cAMP; read-out: IC50 against CRHR2
T1 sequence (Q13324 1-411): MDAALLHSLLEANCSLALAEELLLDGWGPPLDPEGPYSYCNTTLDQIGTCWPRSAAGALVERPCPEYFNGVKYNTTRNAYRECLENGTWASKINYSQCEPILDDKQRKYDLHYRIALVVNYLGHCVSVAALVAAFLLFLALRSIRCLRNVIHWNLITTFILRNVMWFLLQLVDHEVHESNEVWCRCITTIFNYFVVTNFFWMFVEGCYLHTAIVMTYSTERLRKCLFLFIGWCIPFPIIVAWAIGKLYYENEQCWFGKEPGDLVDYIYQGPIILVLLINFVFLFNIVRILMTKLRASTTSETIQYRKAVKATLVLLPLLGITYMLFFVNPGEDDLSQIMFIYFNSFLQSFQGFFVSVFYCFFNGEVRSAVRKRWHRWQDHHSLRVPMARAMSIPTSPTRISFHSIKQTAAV
Procedure, shortened: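 IC50 values derive from percent inhibition of EC80 agonist-stimulated cAMP in CHO-K1 transfectants, with 0.5 mM IBMX present; the CRHR2 line was stimulated by human urocortin2 and the CRHR1 line by CRF.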

Row | SMILES | IC50 [nM]
1 | O=C(N[C@H]1CC[C@H](Cn2c(=O)n(-c3ccc(-n4nccn4)cc3)c3ccccc32)CC1)c1cc(Cl)cnc1C(F)F [Example 684, N-((1r,4r)-4-((3-(4-(2H-1,2,3-triazol-2-yl)phenyl)-2-oxo-2,3-dihydro-1H-benzo[d]imidazol-1-yl)methyl)cyclo-hexyl)-5-chloro-2-(difluoro-methyl)nicotinamide] | < 300
2 | C=Cc1cc(-n2c(=O)n(C[C@H]3CC[C@H](NC(=O)c4cc(Cl)cnc4C)CC3)c3ccccc32)ccn1 [Example 82, 5-chloro-2-methyl-N-((1r,4r)-4-((2-oxo-3-(2-vinylpyridin-4-yl)-2,3-dihydro-1H-benzo [d]imidazol-1-yl)methyl)cyclohexyl)nicotinamide] | < 300
3 | N#Cc1ccccc1-n1c(=O)n(C[C@H]2CC[C@H](NC(=O)c3cc(Cl)cnc3C(F)(F)F)CC2)c2ccccc21 [Example 291, 5-chloro-N-((1r,4r)-4-((3-(2-cyanophenyl)-2-oxo-2,3-dihydro-1H-benzo[d]imidazol-1-yl)methyl)cyclo-hexyl)-2-(trifluoromethyl) nicotinamide] | < 300
4 | CNc1ccc(-n2c(=O)n(C[C@H]3CC[C@H](NC(=O)c4cc(Cl)cnc4C(F)(F)F)CC3)c3cc(F)ccc32)cn1 [Example 704, 5-chloro-N-((1r,4r)-4-((6-fluoro-3-(6-(methylamino)pyridin-3-yl)-2-oxo-2,3-dihydro-1H-benzo[d]imidazol-1-yl)methyl)cyclo-hexyl)-2-(trifluoromethyl) nicotinamide] | < 300
5 | COc1ccc(C(=O)Cn2c(=O)n(C[C@H]3CC[C@H](NC(=O)c4cc(Cl)cnc4C)CC3)c3ccccc32)cc1 [Example 9, 5-chloro-N-((1r,4r)-4-((3-(2-(4-methoxyphenyl)-2-oxoethyl)-2-oxo-2,3-dihydro-1H-benzo[d]imidazol-1-yl)methy)cyclohexyl)-2-methylnicotinamide] | < 300
6 | Cc1ncc(Cl)cc1C(=O)N[C@H]1CC[C@H](Cn2c(=O)n(-c3cnc4c(c3)CCN4C)c3ccccc32)CC1 [Example 154, 5-chloro-2-methyl-N-((1r,4r)-4-((3-(1-methyl-2,3-dihydro-1H-pyrrolo[2,3-b]pyridin-5-yl)-2-oxo-2,3-dihydro-1H-benzo[d]imidazol-1-yl)methyl)cyclohexyl)nicotinamide] | < 300
7 | COC1CN(c2ccc(-n3c(=O)n(C[C@H]4CC[C@H](NC(=O)c5cc(Cl)cnc5C)CC4)c4ccccc43)cn2)C1 [Example 144, 5-chloro-N-((1r,4r)-4-((3-(6-(3-methoxyazetidin-1-yl)pyridin-3-yl)-2-oxo-2,3-dihydro-1H-benzo[d]imidazol-1-yl)methyl)cyclohexyl)-2-methylnicotinamide] | < 300
8 | Cc1ncc(Cl)cc1C(=O)N[C@H]1CC[C@H](Cn2c(=O)n(-c3cccc(-c4cnn(C)c4)n3)c3ccccc32)CC1 [Example 656, 5-chloro-2-methyl-N-((1r,4r)-4-((3-(6-(1-methyl-1H-pyrazol-4-yl)pyridin-2-yl)-2-oxo-2,3-dihydro-1H-benzo[d]imidazol-1-yl)methyl)cyclohexyl)nicotinamide] | < 300
9 | Cc1noc2cc(-n3c(=O)n(C[C@H]4CC[C@H](NC(=O)c5cc(Cl)cnc5C(F)F)CC4)c4cccnc43)ccc12 [Example 583, 5-chloro-2-(difluoromethyl)-N-((1r,4r)-4-((3-(3-methyl-benzo[d]isoxazol-6-yl)-2-oxo-2,3-dihydro-1H-imidazo [4,5-b]pyridin-1-yl)methyl)cyclohexyl)nicotinamide] | < 300
10 | COc1cc(-n2c(=O)n(C[C@H]3CC[C@H](NC(=O)c4cc(Cl)cnc4C(F)F)CC3)c3cccnc32)ccc1F [Example 399, 5-chloro-2-(difluoromethyl)-N-((1r,4r)-4-((3-(4-fluoro-3-methoxyphenyl)-2-oxo-2,3-dihydro-1H-imidazo[4,5-b]pyridin-1-yl)methyl)cyclo-hexyl)nicotinamide] | < 300

Results, then the compound that gave them:

Row | IC50 [nM] | SMILES
11 | < 300 | CNC(=O)c1ccc(-n2c(=O)n(C[C@H]3CC[C@H](NC(=O)c4cc(C(F)(F)F)cnc4C)CC3)c3ccccc32)cn1 [Example 491, N-methyl-5-(3-(((1r,4r)-4-(2-methyl-5-(trifluoromethyl)nicotinamido)cyclohexyl)methyl)-2-oxo-2,3-dihydro-1H-benzo[d]imidazol-1-yl) picolinamide]
12 | < 300 | CNC(=O)c1ccc(-n2c(=O)n(C[C@H]3CC[C@H](NC(=O)c4cc(C)ccc4C(F)(F)F)CC3)c3ccccc32)cn1 [Example 492, N-methyl-5-(3-(((1r,4r)-4-(5-methyl-2-(trifluoro-methyl)benzamido)cyclo-hexyl)methyl)-2-oxo-2,3-dihydro-1H-benzo[d]imidazol-1-yl)picolinamide]
13 | < 300 | CNC(=O)c1ccc(-n2c(=O)n(C[C@H]3CC[C@H](NC(=O)c4cc(Cl)ccc4OC(F)(F)F)CC3)c3ccccc32)cn1 [Example 531, 5-(3-(((1r,4r)-4-(5-chloro-2-(trifluoromethoxy)benzamido)cyclohexyl)methyl)-2-oxo-2,3-dihydro-1H-benzo[d]imidazol-1-yl)-N-methyl-picolinamide]
14 | < 300 | Cn1ccc(-c2cccc(-n3c(=O)n(C[C@H]4CC[C@H](NC(=O)c5cc(Cl)cnc5C(F)F)CC4)c4ccccc43)c2)n1 [Example 700, 5-chloro-2-(difluoromethyl)-N-((1r,4r)-4-((3-(3-(1-methyl-1H-pyrazol-3-yl)phenyl)-2-oxo-2,3-dihydro-1H-benzo[d]imidazol-1-yl)methyl)cyclohexyl) nicotinamide]
15 | < 300 | O=C(N[C@H]1CC[C@H](Cn2c(=O)n(-c3ccc(N4CC[C@@H](O)C4)nc3)c3ccccc32)CC1)c1cc(Cl)cnc1C(F)F [Example 461, 5-chloro-2-(difluoromethyl)-N-((1R,4r)-4-((3-(6-((R)-3-hydroxypyrrolidin-1-yl)pyridin-3-yl)-2-oxo-2,3-dihydro-1H-benzo[d]imidazol-1-yl)methyl)cyclohexyl) nicotinamide]
16 | < 300 | CNC(=O)c1ccc(-n2c(=O)n(C[C@H]3CC[C@H](NC(=O)c4cc(Cl)cnc4C)CC3)c3cccc(F)c32)cn1 [Example 235, 5-(3-(((1r,4r)-4-(5-chloro-2-methylnicotinamido)cyclo-hexyl)methyl)-7-fluoro-2-oxo-2,3-dihydro-1H-benzo[d]imidazol-1-yl)-N-methylpicolinamide]
17 | < 300 | Cc1ncc(Cl)cc1C(=O)N[C@H]1CC[C@H](Cn2c(=O)n(-c3ccccc3C#N)c3ccccc32)CC1 [Example 219, 5-chloro-N-((1r,4r)-4-((3-(2-cyanophenyl)-2-oxo-2,3-dihydro-1H-benzo[d]imidazol-1-yl)methyl)cyclohexyl)-2-methylnicotinamide]
18 | < 300 | COc1ccc(Cl)c(-n2c(=O)n(C[C@H]3CC[C@H](NC(=O)c4cc(Cl)cnc4C(F)F)CC3)c3cnccc32)c1 [Example 631, 5-chloro-N-((1r,4r)-4-((1-(2-chloro-5-methoxyphenyl)-2-oxo-1H-imidazo[4,5-c]pyridin-3(2H)-yl)methyl)cyclohexyl)-2-(difluoromethyl) nicotinamide]
19 | < 300 | Cc1ncc(Cl)cc1C(=O)N[C@H]1CC[C@H](Cn2c(=O)n(-c3ccc(F)cc3F)c3ccccc32)CC1 [Example 46, 5-chloro-N-((1r,4r)-4-((3-(2,4-difluorophenyl)-2-oxo-2,3-dihydro-1H-benzo[d]imidazol-1-yl)methyl)cyclohexyl)-2-methylnicotinamide]
